Reference: patent US6555091B1, “Polypeptide capable of reacting with antibodies of patients suffering from multiple sclerosis and uses” (Bio Merieux, priority 1997, dated 2003)

Columns and labels:
[1] = system: IgG of CSF from patients suffering from MS; assay: ELISA of polypeptides, IgG response of CSFs diluted 1/10 (Table 5, FIGS. 7A and 7B); format: binding, human; details: total line, 15 MS patients, CSF 1/10
Text: FIGS. 7A and 7B represents the IgG response of the polypeptides whose peptide sequence consists of, respectively, SEQ ID NO: 13, SEQ ID NO: 12, SEQ ID NO: 14, SEQ ID NO: 16, SEQ ID NO: 19 and SEQ ID NO: 15, with respect to CSFs diluted 1/10; the results assembled in the appended Table 5 are expressed by the difference in the optical density values obtained for the polypeptide tested and the values obtained for the HIV polypeptide used as control; ND corresponds to patients suffering from a neurological disease other than MS, and MS* corresponds to patients suffering from MS.
Table 5, illustrated in FIGS. 7A and 7B, collates the results on the specific recognition of CSF from patients suffering from MS for 6 polypeptides of the invention, SEQ ID NO: 13, SEQ ID NO: 12, SEQ ID NO: 14, SEQ ID NO: 16, SEQ ID NO: 19 and SEQ ID NO: 15.
For each polypeptide tested, identified in Table 5 by its peptide sequence, the CSFs from patients 1-22 suffering from Ms are determined as positive (+) if the OD value at 492 nm for a 1/10 dilution of the CSF is greater than the mean values obtained for the CSFs from the ND patients+3 times the standard deviation.

[2] = system: IgM of sera from MS patients and healthy individuals; assay: ELISA of biotinylated synthetic peptide, IgM response of individual human sera; format: binding; set-up: key to LINE (mark: serum recognizes the peptide): X: 7 sera out of 11 recognize this peptide; details: 1/100; for LINE (mark: serum recognizes the peptide) / OD 1 / OD 2 / OD 3 / MEAN: IgM
Procedure: Depending on the information obtained from the preceding examples, the hexapeptides SEQ ID NO: 3 and SEQ ID NO: 4 were synthesized and biotinylated according to the method described in Patent Application No. EP 93420183 with the following modifications: the peptide still bound to the resin is selectively deprotected at the N-terminal position. After overnight incubation with the biotin-NHS at 50% in DMF, the peptide is then cleaved from the resin and treated as described in the patent cited above.
The wells of a Maxisorb (trade name, Nunc) microtiter plate are saturated with 100 μl of a 50 mM NaHCO3 solution, pH 9.6, containing 10 μg/ml of streptavidin for 2 hours at 37° C. The plate is washed with TBS/0.05% Tween 20 buffer. The wells are then saturated with 250 μl of wash buffer supplemented with 10% goat serum for 1 hour at 37° C. and then washed as described above.
The IgM response is determined by addition of a 1/4000 solution of mouse monoclonal antibody anti-alkaline phosphatase-labeled human M immunoglobulin conjugate (bioMérieux Ac 5A10D5). After incubation at 37° C. for one hour the plate is again washed and the p-nitrophenyl phosphate substrate at 1 mg/ml in an […] of diethanolamine, pH 9.8, containing 1 mM MgCl2, is added. The reaction is stopped after 30 minutes by the addition of 50 μl of 3N sodium hydroxide solution. The optical density is read at 405 nm.
This unit was therefore also synthesized and biotinylated.

## DTPYPWGWLLDEGYD (MSRV) [SEQ ID NO: 15]
[1]
  number of positive (+) CSFs: 0+

## LAVRHD [SEQ ID NO: 8]
[2]; serum 33/6 (MS+, remission)
  LINE (mark: serum recognizes the peptide): X
  OD 1: 516 optical density (×1000)
  OD 2: 529 optical density (×1000)
  OD 3: 481 optical density (×1000)
[2]; serum 33/6 (MS+, remission), (mean less Control 1, 173)
  MEAN: 336 optical density (×1000)
[2]; serum 33/6 (MS+, remission), MEAN
  MEAN: 509 optical density (×1000)
[2]; serum 33/8 (MS+, remission)
  LINE (mark: serum recognizes the peptide): X
  OD 1: 609 optical density (×1000)
  OD 2: 512 optical density (×1000)
  OD 3: 568 optical density (×1000)
[2]; serum 33/8 (MS+, remission), (mean less Control 1, 173)
  MEAN: 390 optical density (×1000)
[2]; serum 33/8 (MS+, remission), MEAN
  MEAN: 563 optical density (×1000)
[2]; serum 33/18 (MS+, remission)
  LINE (mark: serum recognizes the peptide): X
  OD 1: 277 optical density (×1000)
  OD 2: 262 optical density (×1000)
  OD 3: 255 optical density (×1000)
[2]; serum 33/18 (MS+, remission), (mean less Control 1, 173)
  MEAN: 92 optical density (×1000)
[2]; serum 33/18 (MS+, remission), MEAN
  MEAN: 265 optical density (×1000)
[2]; serum No. 12 (MS−, healthy)
  OD 1: 222 optical density (×1000)
  OD 2: 175 optical density (×1000)
  OD 3: 163 optical density (×1000)
[2]; serum No. 12 (MS−, healthy), (mean less Control 1, 173)
  MEAN: 14 optical density (×1000)
[2]; serum No. 12 (MS−, healthy), MEAN
  MEAN: 187 optical density (×1000)
[2]; serum No. 13 (MS−, healthy)
  OD 1: 145 optical density (×1000)
  OD 2: 154 optical density (×1000)
  OD 3: 196 optical density (×1000)
[2]; serum No. 13 (MS−, healthy), (mean less Control 1, 173)
  MEAN: −6 optical density (×1000)
[2]; serum No. 13 (MS−, healthy), MEAN
  MEAN: 165 optical density (×1000)
[2]; serum No. 14 (MS−, healthy)
  OD 1: 320 optical density (×1000)
  OD 2: 165 optical density (×1000)
  OD 3: 143 optical density (×1000)
[2]; serum No. 14 (MS−, healthy), (mean less Control 1, 173)
  MEAN: 36 optical density (×1000)
[2]; serum No. 14 (MS−, healthy), MEAN
  MEAN: 209 optical density (×1000)
[2]; serum No. 15 (MS−, healthy)
  OD 1: 254 optical density (×1000)
  OD 2: 205 optical density (×1000)
  OD 3: 173 optical density (×1000)
[2]; serum No. 15 (MS−, healthy), (mean less Control 1, 173)
  MEAN: 38 optical density (×1000)
[2]; serum No. 15 (MS−, healthy), MEAN
  MEAN: 211 optical density (×1000)
[2]; serum QS 2 (MS+, remission)
  LINE (mark: serum recognizes the peptide): X
  OD 1: 281 optical density (×1000)
  OD 2: 280 optical density (×1000)
  OD 3: 231 optical density (×1000)
[2]; serum QS 2 (MS+, remission), (mean less Control 1, 173)
  MEAN: 91 optical density (×1000)
[2]; serum QS 2 (MS+, remission), MEAN
  MEAN: 264 optical density (×1000)
[2]; serum QS 3 (MS+, remission)
  OD 1: 191 optical density (×1000)
  OD 2: 169 optical density (×1000)
  OD 3: 164 optical density (×1000)
[2]; serum QS 3 (MS+, remission), (mean less Control 1, 173)
  MEAN: 2 optical density (×1000)
[2]; serum QS 3 (MS+, remission), MEAN
  MEAN: 175 optical density (×1000)
[2]; serum QS 4 (MS+, remission)
  LINE (mark: serum recognizes the peptide): X
  OD 1: 374 optical density (×1000)
  OD 2: 361 optical density (×1000)
  OD 3: 346 optical density (×1000)
[2]; serum QS 4 (MS+, remission), (mean less Control 1, 173)
  MEAN: 187 optical density (×1000)
[2]; serum QS 4 (MS+, remission), MEAN
  MEAN: 360 optical density (×1000)
[2]; serum QS 6 (MS+, remission)
  OD 1: 156 optical density (×1000)
  OD 2: 147 optical density (×1000)
  OD 3: 151 optical density (×1000)
[2]; serum QS 6 (MS+, remission), (mean less Control 1, 173)
  MEAN: −22 optical density (×1000)
[2]; serum QS 6 (MS+, remission), MEAN
  MEAN: 151 optical density (×1000)
[2]; serum QS 7 (MS+, remission)
  LINE (mark: serum recognizes the peptide): X
  OD 1: 311 optical density (×1000)
  OD 2: 290 optical density (×1000)
  OD 3: 164 optical density (×1000)
[2]; serum QS 7 (MS+, remission), (mean less Control 1, 173)
  MEAN: 82 optical density (×1000)
[2]; serum QS 7 (MS+, remission), MEAN
  MEAN: 265 optical density (×1000)
[2]; serum QS 8 (MS+, remission)
  LINE (mark: serum recognizes the peptide): X
  OD 1: 305 optical density (×1000)
  OD 2: 221 optical density (×1000)
  OD 3: 265 optical density (×1000)
[2]; serum QS 8 (MS+, remission), (mean less Control 1, 173)
  MEAN: 91 optical density (×1000)
[2]; serum QS 8 (MS+, remission), MEAN
  MEAN: 264 optical density (×1000)
[2]; serum QS 11 (MS+, remission)
  OD 1: 164 optical density (×1000)
  OD 2: 160 optical density (×1000)
  OD 3: 139 optical density (×1000)
[2]; serum QS 11 (MS+, remission), (mean less Control 1, 173)
  MEAN: −19 optical density (×1000)
[2]; serum QS 11 (MS+, remission), MEAN
  MEAN: 154 optical density (×1000)
[2]; serum QS 12 (MS+, remission)
  OD 1: 123 optical density (×1000)
  OD 2: 57 optical density (×1000)
  OD 3: 148 optical density (×1000)
[2]; serum QS 12 (MS+, remission), (mean less Control 1, 173)
  MEAN: −64 optical density (×1000)
[2]; serum QS 12 (MS+, remission), MEAN
  MEAN: 109 optical density (×1000)
[2]; same panel of 11 MS remission sera
  MS sera recognizing the peptide, IgM response: 7 sera out of 11
